The text below walks through data of patent publication US10010536B2, “Method of modulating stress-activated protein kinase system” (InterMune, Inc., priority 2005, dated 2018).

In series [1] the test system is TNFα release from THP-1 cells stimulated with lipopolysaccharide (LPS). Briefly: Inhibition of TNFα release from THP-1 cells stimulated with lipopolysaccharide (LPS). In kind it is cell-based. The arrangement: key to TNF EC50: A: ≤2,000; B: >2,000; C: Inconclusive (e.g., no data or no activity observed). The settings on record: for EC50: Homo sapiens, read-out: TNF EC50. On the procedure:
Compounds are screened for the ability to inhibit TNFα release from THP-1 cells stimulated with lipopolysaccharide (LPS) in vitro. The ability of compounds to inhibit TNFα release in this in vitro assay is correlated with the inhibition of p38 activity and TNFα, and is therefore an indicator of potential in vivo therapeutic activity (Lee J. C. et al. 1993 Ann. N.Y. Acad. Sci. 696:149-170; and 1994 Nature 372:739-746).
THP-I cells from ATCC (TIB202) are maintained at 37° C., 5% CO2 in RPMI 1640 media (MediaTech, Herndon, Va.) containing 4.5 g/L glucose, supplemented with 10% fetal bovine serum, 1% penicillin/streptomycin and 50 μM β-mercaptoethanol.
Test compounds are initially dissolved in RPMI media with 1% DMSO (v/v). Compounds are then serially diluted in RPMI media for all subsequent dilutions. The assay is performed under sterile conditions. THP-1 cells at a culture density of 6-8×10^5 cells/ml are collected and resuspended in the RPMI media at 10^6 cells/ml. 100 μl of resuspended cells are added to each well, which contain 100 μl of a test compound. Test compounds are prepared at twice the final concentration. Final DMSO concentration is no more than 0.5% (v/v). Cells are preincubated with compound for 60 minutes at 37° C., 5% CO2 prior to stimulation with lipopolysaccharide (LPS) (Sigma L-2880, 4 mg/ml stock in PBS). The final LPS concentration in each well is […] for TNFα and IL-1β release, respectively. Unstimulated control cell suspensions receive PBS vehicle only. Cell mixtures are incubated for 18 or 48 hours for TNFα and IL-1β release, respectively. 150 μl of supernatants are taken and transferred to a fresh plate and stored at −20° C. until farther analysis. TNFα and IL-1β levels are measured using ELISA kits. A Luminescence is used as the plate reader. Analysis is performed by non-linear regression to generate a dose response curve.

A short description of series [2]: Pharmacokinetic properties in dual canulated Sprague Dawley rats. The series is classed as in vivo. The arrangement: Clobs: unit not given here. The settings on record: rat; for AUC(0-t) / MRT inf / half-life: male, Sprague Dawley, plasma. Here is the method:
The pharmacokinetic (PK) properties of pirfenidone, pirfenidone analogs and derivatives were assessed in dual canulated (right jugular/left carotid) Sprague Dawley rats (Charles River Laboratories, Inc., Wilmington, Mass.). Male rats weighing approximately 275-300 g were administered an intravenous (5 mg/Kg) or oral (50 mg/Kg via gavage) dose of compound in an appropriate formulation. Plasma samples were collected via intra-arterial canula at desired times in the 24 hours after dosing using EDTA as an anticoagulant. Three animals were used for each compound. All experiments were conducted by trained personnel in accordance with guidelines of the appropriate Institutional Animal Care and Use Committees (IACUC). Compound concentrations were assessed by LC-MS using a MDS SCIEX API 3000 mass spectrometer (Applied Biosystems, Foster City, Calif.) coupled to a Shimadzu VP HPLC (Shimadzu Corp., Kyoto, Japan) outfitted with a Duragel G C18 guard cartridge (Peeke Scientific, Redwood City, Calif.). Calibration samples were prepared by mixing known amounts of pirfenidone, or a pirfenidone analog or derivative, with rat plasma. A standard curve was created by serial dilution of the calibration sample in the same matrix. Both standard and analytical samples were prepared for injection to the HPLC by mixing an aliquot of plasma sample with 3 volumes of ice cold acetonitrile containing internal standard. Samples were then centrifuged. An aliquot of the resulting supernatant was then mixed with five volumes of 0.2% formic acid in water, injected to the HPLC, and resolved in a methanol gradient (containing 0.18-0.2% formic acid). The integrated analyte signal was corrected for that of the internal standard and compared to the appropriate standard curve in order to define the analyte concentration. The pharmacokinetic parameters shown in Table 4 were derived using the WinNonlin Software package (Pharsight Corp, Mountain View, Calif.).

In the next series the test system is HFL-1 Cells. Nature of the series: Effect of compounds on TGF-β-induced collagen production in HFL-1 cells (Sircol collagen assay). In kind it is cell-based. The settings on record: Homo sapiens, HFL1, 72 h, compound 1 mM, TGF-β1 10 ng/mL, three days, read-out: % Inhibition of TGF-β Stimulated Collagen Synthesis. Here is the method:
HFL-1 Cells (ATCC, Rockville, Md.) were grown under regular tissue culture conditions in complete media containing 10% fetal bovine serum (FBS; Mediatech, Inc., Herndon, Va.). Cells in early passage were plated in 6 well plates. When the cells reached confluence, the media was removed, cells washed with PBS, and the cells were kept overnight in complete media containing 0.1% FBS. The media was then replaced with fresh media plus 0.1% FCS, 10 μM L-Proline (EMD Chemicals, Gibbstown, N.J.), 20 μg/mL ascorbic acid (EMD Chemicals, Gibbstown, N.J.). Compounds were added to triplicate wells to a final concentration of 1 mM from 100× stock solutions in DMSO. One hour after the addition of compound, the cells were treated with TGF-β1 (Sigma-Aldrich, St. Louis, Mo.) to a final concentration of 10 ng/mL (25 ng total). Three days after addition of TGF-β, the media was removed, cells were washed with PBS and then lysed. The total collagen content of lysed cells was assessed with a dye-based collagen assay (Sircol Collagen Assay, Newtownabbey, Northern Ireland) and a μQuant plate-based spectrophotometer (BioTek Insturments, Inc., Winooski, Vt.) with appropriate standard curves. The dynamic range of the assay is defined by cells that were mock treated (1% DMSO without compound) in the presence and absence of TGF-β.

The subject of another series is THP-1 cells. Briefly: Compound toxicity testing in a cell based assay (LDH release, ATP and/or MTT assay). The settings on record: given as concentration. Here is the method: The release of LDH as result of a disrupted cell membrane is applied as a measure of cell toxicity. […] THP-1 cells are used for determination of cell toxicity for consistency with the induced TNFα expression in the previous experiment. […] The compounds are added at different concentrations in triplicate. The appropriate solvent control is used in each assay. After compound addition the cells are cultured 18 hours under regular tissue culture conditions. After this incubation period, the positive control is initiated by adding Triton-X-100 (2% v/v) to untreated cells and incubated for an additional 10 minutes for complete cell lysis. Subsequently the cells are sedimented by centrifugation and a fraction of the supernatant removed and analyzed for LDH enzyme activity according to the manufacturer's instructions. The data is typically reported as % cell toxicity normalized to the Triton-X-100 lysed cells as 100% cell toxicity.
Toxicity data are also obtained using a commercially available ATP assay (Molecular Probes' ATP Determination Kit A22066, available from Invitrogen) and/or using a MTT assay. Both the ATP and the MTT assays measure metabolic competence of the cell. The MTT assay measures the ability of the cell to reduce a marker substrate, which is related to metabolic competence (i.e. viability). The ATP assay measures the cellular ATP concentration in the presence and absence of compound. Toxic compounds lead to reduced metabolic activity which leads to a reduction in ATP concentration.
For orientation: Release of lactate dehydrogenase indicates damage to the cell membrane.

What is called EC50 is the concentration that produces a half-maximal response. Consider `Cc1ccc(=O)n(-c2cc[n+](C)cc2)c1` [Compound 25], for which the EC50 in series [1] is over 2000 µM.

On to `O=c1ccccn1-c1ccc(O)cc1` [Compound 9], for which the “TNF EC50” value in series [1] is listed as “C”.

Regarding `COC(=O)c1ccc(=O)n(-c2ccccc2)c1` [Compound 24], the “TNF EC50” value in series [1] is given as “C”.

A word on the AUC(0-t): it is the area under the concentration-time curve up to a stated or last time point. The MRT inf is a mean duration of stay, worked out from the concentration-time curve. Usually half-life stands for the time needed for the level to fall by half in the phase considered. Broadly, the inhibition is the relative decrease from the control value, in per cent. In the case of `O=c1ccc(C(F)(F)F)cn1-c1ccccc1` [Compound 8], in series [2] (IV, 5 mg/kg), the AUC(0-t) was 30200 ng·h/mL, the mean residence time (MRT inf) was 20.3 h, the half-life is 13.9 h and the Clobs came out at 0.117. In series [2] (Oral, 50 mg/kg), this compound yielded an area under the curve AUC(0-t) of 122000 ng·h/mL and an E of 40.5%. In series [1], the 50% effective concentration (EC50) was over 2000 µM. Besides, the inhibition at 1000 µM in the series with HFL-1 Cells was 48%.

Take `COc1ccc(-n2cc(Br)ccc2=O)cc1` [Compound 27]: in series [1], the EC50 is at most 2000 µM.

For `O=c1ccc(-c2ccccc2)cn1-c1ccccc1` [Compound 17], the “TNF EC50” value in series [1] is “C”.

`O=c1ccc(CO)cn1-c1ccccc1` [Compound 1]: the EC50 in series [1] was over 2000 µM.

As for `O=c1ccccn1-c1ccccc1` [Compound 7], the EC50 in series [1] was over 2000 µM.

Consider `COCc1ccc(=O)n(-c2ccccc2)c1` [Compound 6], for which, in the series with THP-1 cells, the Toxicity is listed as at least 1 mM. In series [1], the EC50 is at most 2000 µM.

For `COc1ccc(-n2cc(CF)ccc2=O)cc1` [Compound 31], the EC50 in series [1] is at most 2000 µM.

For `O=c1ccc2cc(Br)ccc2n1-c1ccccc1` [Compound 33], in series [1], the “TNF EC50” value is reported as “C”.

For `O=c1ccc(CF)cn1-c1ccc(O)cc1` [Compound 28], in series [1], the “TNF EC50” value is reported as “C”.

On to `COc1ccc(-n2cc(C(F)(F)F)ccc2=O)cc1` [Compound 15], for which the “TNF EC50” value in series [1] is on record as “C”. Besides, the inhibition at 1000 µM in the series on HFL-1 Cells amounted to 49%.

In the case of `Cc1ccc(=O)n(-c2ccc(F)cc2)c1` [Compound 14], the concentration giving a half-maximal response (EC50) in series [1] is over 2000 µM. The inhibition at 1000 µM in the series on HFL-1 Cells amounted to 23%.

Take `COc1ccc(-n2cc(C(F)F)ccc2=O)cc1` [Compound 32]: the concentration giving a half-maximal response (EC50) in series [1] is at most 2000 µM.

Consider `CC(=O)c1ccc(=O)n(-c2ccccc2)c1` [Compound 16, 1-phenyl-5-acetyl-2-pyridone], for which the “TNF EC50” value in series [1] was “C”.

As for `O=c1ccc(C(F)F)cn1-c1ccc(O)cc1` [Compound 29], the “TNF EC50” value in series [1] is listed as “C”.

Take `O=C(O)c1ccc(=O)n(-c2ccccc2)c1` [Compound 2]: in series [1], the “TNF EC50” value is “C”.

`Cc1cc(O)c(=O)n(-c2ccccc2)c1` [Compound 4] displayed a Toxicity with THP-1 cells of at least 1 mM. Also, the 50% effective concentration (EC50) in series [1] was at most 2000 µM.

Take `O=c1ccc(C(F)F)cn1-c1ccccc1` [Compound 19]: in series [2] (IV, 5 mg/kg), the AUC(0-t) came to 35000 ng·h/mL, the mean residence time (MRT inf) came out at 6.26 h, the half-life is 2.96 h and the Clobs is recorded as 0.142. Also, in series [2] (Oral, 50 mg/kg), the area under the curve AUC(0-t) amounted to 192000 ng·h/mL and the E is listed as 54.8%.

In the series with THP-1 cells, `Cc1ccc(=O)n(-c2ccc(O)cc2)c1` [Compound 5] had a Toxicity of at least 1 mM. Further, the half-maximal effective concentration (EC50) in series [1] is at most 2000 µM.

On to `O=c1ccc(C(F)(F)F)cn1-c1ccc(O)cc1` [Compound 10, 1-(4-hydroxyphenyl)-5-(trifloromethyl)-2-pyridone], for which, in series [1], the EC50 is at most 2000 µM.

In series [2] (IV, 5 mg/kg), `O=c1ccc(Br)cn1-c1ccccc1` [Compound 26] showed an AUC(0-t) of 10300 ng·h/mL, a mean residence time MRT inf of 2.4 h, a half-life of 1.62 h and a Clobs of 0.691. In series [2] (Oral, 50 mg/kg), this compound displayed an AUC(0-t) of 65800 ng·h/mL and an E of 63.9%. Further, the half-maximal effective concentration (EC50) in series [1] is at most 2000 µM. Further, the inhibition at 1000 µM in the series on HFL-1 Cells came out at 58%.

On to `O=c1ccc(Br)cn1-c1ccc(O)cc1` [Compound 30], for which the EC50 in series [1] was at most 2000 µM. Besides, in the series with HFL-1 Cells, the inhibition at 1000 µM is 69%.

As to `O=c1ccc(C(F)(F)F)cn1-c1ccc(F)cc1` [Compound 12], the “TNF EC50” value in series [1] is listed as “C”.

Turning to `Cc1ccc(=O)n(-c2ccccc2)c1` [Compound 13, 5-methyl-1-phenyl-2-(1H)-pyridone, reference compound], the Toxicity with THP-1 cells is at least 1 mM. In addition, the EC50 in series [1] was at most 2000 µM.

Regarding `Cc1ccc(=S)n(-c2ccccc2)c1` [Compound 18, 1-phenyl-5-methyl-2-pyridinethione], in series [1], the “TNF EC50” value is given as “C”.

On to `O=c1ccccn1-c1ccc(F)cc1` [Compound 11], for which the half-maximal effective concentration (EC50) in series [1] is over 2000 µM.
